# Data taken from publication PMC7466261, “In Silico and In Vitro Analysis of Multifunctionality of Animal Food-Derived Peptides” (Foods, 2020).
# Where two headings read alike, the source gives them in different places. Where a SMILES comes first, the peptide text is derived from it. Where no end group is shown, it is not given here.
# Assays:
# [1] = Oxygen radical absorbance capacity (ORAC)-FL assay; details: mean ± SD
# Method: An oxygen radical absorbance capacity (ORAC)-FL assay was used based on the protocol previously optimized. The reaction was performed at 37 °C in 75 mM phosphate buffer (pH 7.4). The final assay mixture volume was 200 µL, containing 70 nM FL, 12 mM AAPH, and antioxidant [(Trolox, 1–8 µM) or sample (at different concentrations)]. Fluorescence was measured during 137 min in a FLUOstar OPTIMA plate reader (BMG Labtech) with 485 nm excitation and 520 nm emission filters. The equipment was controlled by the FLUOstar Control ver. 1.32 R2 software for fluorescence measurement. Samples were analyzed in triplicate. The final ORAC-FL value was expressed as μmol Trolox equivalents (TE) per μmol peptide.
# ABTS assay (TEAC) = details: mean ± SD
# Method: Antioxidant activity was measured using a previously optimized method with some modifications. A mixture of 7 mM ABTS stock solution and 2.45 mM potassium persulfate was kept in the dark at room temperature for 12-16 h to form the ABTS radical cation (ABTS^•+). The ABTS^•+ solution was diluted in 5 mM of phosphate buffer solution (PBS) (pH 7.4) to an absorbance of 0.70 ± 0.02 at 734 nm at 30 °C. Two mL of diluted ABTS^•+ solution were mixed with 20 μL of sample or Trolox (0–0.015 μmol), and the absorbance was recorded at 734 nm after 10 min incubation at 30 °C. The Trolox equivalent antioxidant capacity (TEAC) value was expressed as μmol TE per μmol peptide. Each sample was analyzed in triplicate.
# [2] = biological target: T1, angiotensin-converting enzyme (ACE) (Oryctolagus cuniculus, UniProt P12822); test: ACE-inhibitory activity, fluorescence assay with Abz-Gly-Phe(NO2)-Pro; format: biochemical
# T1 sequence (P12822 34-1310): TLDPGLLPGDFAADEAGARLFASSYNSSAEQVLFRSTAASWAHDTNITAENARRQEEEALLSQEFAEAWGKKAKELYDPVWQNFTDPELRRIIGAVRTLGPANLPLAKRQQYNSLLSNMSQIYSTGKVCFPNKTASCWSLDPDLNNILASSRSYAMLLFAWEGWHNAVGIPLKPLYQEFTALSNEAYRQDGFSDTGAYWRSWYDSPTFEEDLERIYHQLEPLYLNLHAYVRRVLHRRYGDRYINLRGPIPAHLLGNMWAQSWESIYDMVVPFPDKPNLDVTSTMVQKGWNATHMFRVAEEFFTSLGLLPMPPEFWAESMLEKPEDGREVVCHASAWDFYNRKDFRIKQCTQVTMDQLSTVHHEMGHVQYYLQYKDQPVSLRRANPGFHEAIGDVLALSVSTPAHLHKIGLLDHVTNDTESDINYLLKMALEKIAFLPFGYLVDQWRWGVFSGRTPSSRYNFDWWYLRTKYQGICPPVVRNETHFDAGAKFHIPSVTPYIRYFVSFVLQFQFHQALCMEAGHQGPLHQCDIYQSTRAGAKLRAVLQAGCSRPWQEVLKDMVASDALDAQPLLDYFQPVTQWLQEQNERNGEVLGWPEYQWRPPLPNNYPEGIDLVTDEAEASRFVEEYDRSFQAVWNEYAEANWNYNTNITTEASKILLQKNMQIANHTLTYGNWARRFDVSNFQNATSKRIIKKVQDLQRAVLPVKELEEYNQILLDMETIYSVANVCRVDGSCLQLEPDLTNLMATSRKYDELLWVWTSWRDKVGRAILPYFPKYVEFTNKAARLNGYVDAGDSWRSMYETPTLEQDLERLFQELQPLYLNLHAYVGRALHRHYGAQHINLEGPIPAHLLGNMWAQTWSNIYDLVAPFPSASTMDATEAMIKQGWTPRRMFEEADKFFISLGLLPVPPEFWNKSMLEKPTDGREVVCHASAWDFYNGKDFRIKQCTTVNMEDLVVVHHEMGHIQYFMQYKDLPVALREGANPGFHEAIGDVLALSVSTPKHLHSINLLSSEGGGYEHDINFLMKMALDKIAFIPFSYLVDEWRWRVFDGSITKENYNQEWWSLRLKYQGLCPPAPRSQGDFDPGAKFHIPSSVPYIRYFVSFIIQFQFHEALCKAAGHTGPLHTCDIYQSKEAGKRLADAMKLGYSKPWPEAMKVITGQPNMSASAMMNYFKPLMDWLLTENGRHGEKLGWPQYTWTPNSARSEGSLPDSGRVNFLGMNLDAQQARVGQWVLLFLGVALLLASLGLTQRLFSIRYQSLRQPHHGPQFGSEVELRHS
# Method: ACE (1 U/mL) was diluted (0.04 U/mL) in 150 mM Tris buffer containing 0.1 μM ZnCl2 (pH 8.3). Forty microliters of sample (or MilliQ water for blank and control) were added to a black multi-well plate (Porvair, Leatherhead, UK). Then, 40 μL of ACE were added, and the reaction started after the addition of 160 μL of the substrate. The plate was incubated at 37 °C for 30 min, and the fluorescence was measured in a FLUOstar OPTIMA plate reader (BMG Labtechnologies GmbH, Offenburg, Germany) with 320 nm excitation and 420 nm emission filters.
# [3] = parameters: method as in PMID 10908049; details: BIOPEP-UWM; cited from earlier work
# [4] = parameters: method as in doi:10.1007/s13594-015-0226-5; details: MBPDB; cited from earlier work
# macrophages RAW264.7 = details: RAW264.7 stimulated with 0.25 mM t-BOOH, pre-treated with 25 µM; stimulated cells alone 70.97%
# Method: The human colorectal adenocarcinoma Caco-2 and the mouse macrophage RAW 264.7 cell lines were obtained from the American Type Culture Collection (ATCC, Rockville, MD, USA). Caco-2 and RAW264.7 cells were grown in High-Glucose DMEM supplemented with 10% (v:v) FBS, 1% (v:v) penicillin/streptomycin/amphotericin B, and 1% (v:v) non-essential amino acids solution. Cells were maintained in plastic 75-cm^2 culture flasks at 37 °C in a humidified incubator containing 5% CO2 and 95% air.
# Cells were incubated for 24 h with various concentrations of selected synthetic peptides. To evaluate both the direct and protective effects against oxidative stress, the incubation period was followed by 1.5 h-treatment with culture medium or tert-butyl hydroperoxide (t-BOOH, 1 mM for Caco-2 cells and 0.25 mM for RAW264.7 cells), respectively, and different biomarkers were evaluated.
# Cell viability was determined using the MTT assay. Caco-2 and RAW264.7 cells were seeded onto 96-well plates (Corning Costar Corp., Corning, NY, USA) at a density of 1.0 × 10^4 cells/cm^2 and incubated for 9 days and 24 h, respectively. […] The supernatant was aspirated, the formazan crystals were solubilized in DMSO:ethanol (1:1, v:v), and the absorbance was measured at 570 nm in a FLUOstar OPTIMA plate reader (BMG Labtech). Results were expressed as percentage of the control, considered as 100%. Samples were analyzed in triplicate.
# Caco-2 cells = test: Cell viability (MTT), direct effects, Caco-2; format: cell-based, human; details: Caco-2, 1–100 µM, 24 h
# Method: (§1) Cell viability was determined using the MTT assay. […] Samples were analyzed in triplicate.
# RAW264.7 cells = test: Cell viability (MTT), direct effects, RAW264.7; format: cell-based, mouse; details: RAW264.7, 1–100 µM, 24 h
# Method: as §1
# [5] = biological target: opioid, (3H)-naloxone binding; details: database value; read-out: Opioid agonist IC50, inhibition of (3H)-naloxone binding; cited from earlier work
# murine splenocytes = tested on: murine splenocytes; parameters: method as in doi:10.1016/j.idairyj.2010.02.013; details: MBPDB; cited from earlier work
# mucin secretion = details: MBPDB; cited from earlier work
# [6] = biological target: T1, angiotensin-converting enzyme (ACE); details: BIOPEP-UWM; read-out: ACE inhibitory IC50; cited from earlier work
# [7] = biological target: dipeptidyl peptidase IV (DPP-IV); details: MBPDB; read-out: Antidiabetic IC50, DPP-IV inhibition; cited from earlier work
# [8] = highest peptide concentration analyzed 1000 µM, read-out: ACE Inhibitory Activity (IC50-µM), symbol
compound,measurement,setting,value
C[C@@H](O)[C@H](NC(=O)[C@H](Cc1c[nH]c2ccccc12)NC(=O)[C@@H]1CCCN1)C(=O)O [PWT] (H-Pro-Trp-Thr-OH; N-terminus and C-terminus assumed),Antioxidant Activity ORAC,[1],2.15 ± 0.07 µmol TE/µmol peptide
same,Antioxidant Activity TEAC,ABTS assay (TEAC),0.73 ± 0.07 µmol TE/µmol peptide
same,IC50,[2]; [8],> 1000 µM
same,Linoleic acid peroxidation (antioxidant),[3],Inhibition of linoleic acid peroxidation *
CC(C)C[C@H](NC(=O)[C@H](CC(C)C)NC(=O)[C@@H](N)Cc1ccc(O)cc1)C(=O)O [YLL] (H-Tyr-Leu-Leu-OH; N-terminus and C-terminus assumed),FRAP,[4],FRAP = 81.76 mmol Fe/mol peptide **
same,Antioxidant Activity ORAC,[1],0.78 ± 0.03 µmol TE/µmol peptide
same,Antioxidant Activity TEAC,ABTS assay (TEAC),2.55 ± 0.29 µmol TE/µmol peptide
same,IC50,"[2]; mean ± SD, read-out: ACE Inhibitory Activity (IC50-µM)",518.5 ± 3.5 µM
C[C@@H](O)[C@H](NC(=O)[C@H](Cc1c[nH]c2ccccc12)NC(=O)[C@@H]1CCCN1C(=O)[C@@H](N)Cc1ccc(O)cc1)C(=O)O [YPWT] (H-YPWT-OH),Percentage of viable cells (% control),macrophages RAW264.7,79.58%
same,"Cell viability, direct effect",Caco-2 cells,did not evoke changes in cell viability
same,IC50,[2]; [8],> 1000 µM
same,"Cell viability, direct effect",RAW264.7 cells,did not evoke changes in cell viability
"YLLF (UniProt P02754 118-121, looked up, fragment) [synthetic peptide, β-Lg f(102–105)]",IC50,[5],160 µM
same,Antioxidant Activity ORAC,[1],0.91 ± 0.04 µmol TE/µmol peptide
same,Stimulation of murine splenocytes (listed as cytotoxic),murine splenocytes,Stimulation of murine splenocytes **
same,Mucin secretion (opioid agonist),mucin secretion,Stimulation of mucin secretion **
same,Antioxidant Activity TEAC,ABTS assay (TEAC),1.96 ± 0.30 µmol TE/µmol peptide
same,IC50,[6],172 µM
YPFPGPIPN,Antioxidant Activity ORAC,[1],1.26 ± 0.06 µmol TE/µmol peptide
same,Antioxidant Activity TEAC,ABTS assay (TEAC),1.22 ± 0.17 µmol TE/µmol peptide
same,IC50,[7],6.7 µM
